Laboratory results taken from ChEMBL document CHEMBL5370604, “Identification of Micrococcin P2-Derivatives as Antibiotic Candidates against Two Gram-Positive Pathogens” (J Med Chem, 2023).
Active and inactive are the calls of the source. The calls are words filed in the database; no cut-off is given here.

Key:
[1] = test system: Staphylococcus aureus; assay: (§1) In vivo antibacterial activity against methicillin-resistant Staphylococcus aureus KCCM 40511 ATCC 33593 infected in soft-skin tissue BALB/c mouse infection model assessed as downregulation of IL-6 levels in wound area treated as ointment administered twice at 6 and 12 hrs and measured after 24 hrs by ELISA assay; format: functional, organism-based
[2] = test system: Staphylococcus aureus; assay: as §1, with “IL-1beta” for “IL-6”; format: functional, organism-based

SMILES: C/C=C(\NC(=O)c1csc(-c2csc(-c3ccc4c(n3)-c3csc(n3)[C@H]([C@@H](C)O)NC(=O)c3csc(n3)[C@H](C(C)C)NC(=O)c3csc(n3)/C(=C/C)NC(=O)[C@H]([C@@H](C)O)NC(=O)c3csc-4n3)n2)n1)C(=O)NCCN1CCN(C(C)C)CC1
- Activity [1]: Active
- Activity [2]: Active
